Publication PMC6777825, “Differential scanning fluorimetric analysis of the amino-acid binding to taste receptor using a model receptor protein, the ligand-binding domain of fish T1r2a/T1r3” (PLoS ONE, 2019)
Where two headings read alike, the source gives them in different places.

Columns and labels:
medaka T1r2a/T1r3LBD = medaka T1r2a/T1r3LBD (Oryzias latipes, UniProt A0A173M094+A0A173M0G2); test: Differential scanning fluorimetry (DSF) thermal shift ligand-binding assay; design: species or system O. latipes; conditions: for ΔTm: average ± s.e.m., n = 4; for effect on thermal stability / Tm shift of T1r2a/T1r3LBD (in words): DSF, 0.1-10 mM amino acid; for Tm shift (in words): adding up to 10 mM
medaka T1r2a/T1r3LBD, sequence (A0A173M094 entry or part of it): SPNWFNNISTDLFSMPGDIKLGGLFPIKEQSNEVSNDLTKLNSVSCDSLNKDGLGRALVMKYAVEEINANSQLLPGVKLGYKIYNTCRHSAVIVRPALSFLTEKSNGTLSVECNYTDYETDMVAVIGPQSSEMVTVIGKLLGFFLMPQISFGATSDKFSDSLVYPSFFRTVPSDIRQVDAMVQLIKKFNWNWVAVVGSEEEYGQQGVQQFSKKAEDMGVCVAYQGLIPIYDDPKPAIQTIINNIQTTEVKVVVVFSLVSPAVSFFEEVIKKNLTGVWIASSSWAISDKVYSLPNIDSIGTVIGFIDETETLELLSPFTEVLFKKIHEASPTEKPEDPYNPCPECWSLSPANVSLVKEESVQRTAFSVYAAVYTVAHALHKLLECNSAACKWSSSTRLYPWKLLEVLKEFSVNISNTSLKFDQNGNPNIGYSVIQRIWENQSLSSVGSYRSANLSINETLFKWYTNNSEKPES
medaka T1r2a/T1r3LBD, sequence (A0A173M0G2 entry or part of it): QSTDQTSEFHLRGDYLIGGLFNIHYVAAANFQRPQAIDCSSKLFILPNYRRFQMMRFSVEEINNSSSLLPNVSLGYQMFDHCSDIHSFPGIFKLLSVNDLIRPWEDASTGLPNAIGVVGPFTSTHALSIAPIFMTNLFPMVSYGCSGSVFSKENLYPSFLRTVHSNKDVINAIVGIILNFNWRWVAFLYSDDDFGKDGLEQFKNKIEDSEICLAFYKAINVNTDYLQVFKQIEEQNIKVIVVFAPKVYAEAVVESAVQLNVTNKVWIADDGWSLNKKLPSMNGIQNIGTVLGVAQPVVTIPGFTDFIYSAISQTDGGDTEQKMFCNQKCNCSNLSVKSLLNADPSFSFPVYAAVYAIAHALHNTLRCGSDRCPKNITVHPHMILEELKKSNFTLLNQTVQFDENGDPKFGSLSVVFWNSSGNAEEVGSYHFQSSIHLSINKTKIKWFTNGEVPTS
Method: The protein sample was prepared as described previously. Briefly, Drosophila S2 cells (Invitrogen) stably expressing C-terminal FLAG-tagged T1r2aLBD and T1r3LBD [11, 21] were cultured in ExpressFiveSFM (LifeTechnologies) for five days at 27 °C. The T1r2a/T1r3-LBD protein was purified from the culture medium by the use of ANTI-FLAG M2 Affinity Gel (SIGMA). The purified protein was dialyzed against the assay buffer (20 mM Tris-HCl, 300 mM NaCl, 2 mM CaCl2, pH 8.0).
The protein sample (~1 μg) was mixed with Protein Thermal Shift Dye (Applied Biosystems) and 10~10,000 μM concentration of each amino acid in 20 μL of assay buffer and loaded to a MicroAmpR Fast Optical 48-Well Reaction Plate (Applied Biosystems). Specifically, to minimize the changes of the chemical and optical condition, the amino acid solutions were prepared by the exact same buffer used for the final dialysis of the protein, followed by the re-adjustment of the pH to ~ 8.0 by addition of either NaOH or HCl, and mixed with the protein diluted with the same buffer.
Fluorescent intensity was measured by the StepOne Real-Time PCR System (Applied Biosystems). The temperature was raised from 25 °C to 99 °C with a velocity of 0.022 °C/sec. The reporter and quencher for detection were set as “ROX” and “none”, respectively. Apparent melting transition temperature (Tm) was determined by the use of the maximum of the derivatives of the melt curve (dFluorescence/dT) by Protein Thermal Shift Software version 1.3 (Applied Biosystems).
The apparent dissociation constant (Kd-app) derived from the DSF results was estimated based on Eq 1 proposed by Schellman, assuming that the unfolding of the protein is reversible: ΔTm=Tm−T0=TmT0R/ΔH^0ln(1+[L]/Kd-app) (1) where [L] is the ligand concentration; Tm and T0 are the apparent melting transition temperatures in the presence and absence of the ligand; R is the gas constant; ΔH^0 is the enthalpy of unfolding at T0, assuming that there are no significant variations under the tested conditions. If the melt curves show biphasic profiles, the second (or the right side) Tm values were adopted for calculation, as described in the Results section.
For multiple regression analyses shown in Fig 2B, the apparent Tm values determined at different ligand concentrations were fitted to Eq 1 by using KaleidaGraph (Synergy Software), assuming that the change of the dissociation constant accompanied by the Tm shift is negligible.

[1] = molecular target: T1r2a/T1r3 full-length receptor (Oryzias latipes, UniProt A0A173M094+A0A173M0G2); test: Ca2+-flux receptor response assay in Flip-In 293 cells stably expressing full-length T1r2a, T1r3 and Gα16-gust44; type: cell-based, O. latipes; conditions: for ΔRFU: average ± s.e.m.
T1r2a/T1r3 full-length receptor, sequence (A0A173M0G2 entry or part of it): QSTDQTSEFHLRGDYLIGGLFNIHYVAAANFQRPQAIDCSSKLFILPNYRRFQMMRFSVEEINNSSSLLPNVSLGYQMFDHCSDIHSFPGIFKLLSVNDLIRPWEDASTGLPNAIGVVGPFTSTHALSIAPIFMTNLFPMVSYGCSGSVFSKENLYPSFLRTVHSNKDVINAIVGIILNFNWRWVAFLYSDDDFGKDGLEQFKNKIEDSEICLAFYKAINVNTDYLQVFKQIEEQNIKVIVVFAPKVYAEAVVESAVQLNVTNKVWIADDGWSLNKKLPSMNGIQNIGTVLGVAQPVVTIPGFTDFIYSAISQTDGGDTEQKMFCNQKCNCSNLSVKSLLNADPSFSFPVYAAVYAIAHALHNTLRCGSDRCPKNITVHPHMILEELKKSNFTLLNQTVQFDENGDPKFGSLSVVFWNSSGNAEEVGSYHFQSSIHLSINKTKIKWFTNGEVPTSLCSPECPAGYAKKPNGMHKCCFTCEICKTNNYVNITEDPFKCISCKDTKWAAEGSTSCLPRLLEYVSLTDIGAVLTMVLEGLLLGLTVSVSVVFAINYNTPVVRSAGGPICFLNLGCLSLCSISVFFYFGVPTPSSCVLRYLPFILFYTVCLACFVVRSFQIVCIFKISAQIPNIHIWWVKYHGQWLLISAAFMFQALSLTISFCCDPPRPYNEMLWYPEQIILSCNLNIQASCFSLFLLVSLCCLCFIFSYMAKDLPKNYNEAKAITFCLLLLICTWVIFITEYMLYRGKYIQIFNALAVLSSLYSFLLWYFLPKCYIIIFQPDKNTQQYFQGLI
T1r2a/T1r3 full-length receptor, sequence (A0A173M094 entry or part of it): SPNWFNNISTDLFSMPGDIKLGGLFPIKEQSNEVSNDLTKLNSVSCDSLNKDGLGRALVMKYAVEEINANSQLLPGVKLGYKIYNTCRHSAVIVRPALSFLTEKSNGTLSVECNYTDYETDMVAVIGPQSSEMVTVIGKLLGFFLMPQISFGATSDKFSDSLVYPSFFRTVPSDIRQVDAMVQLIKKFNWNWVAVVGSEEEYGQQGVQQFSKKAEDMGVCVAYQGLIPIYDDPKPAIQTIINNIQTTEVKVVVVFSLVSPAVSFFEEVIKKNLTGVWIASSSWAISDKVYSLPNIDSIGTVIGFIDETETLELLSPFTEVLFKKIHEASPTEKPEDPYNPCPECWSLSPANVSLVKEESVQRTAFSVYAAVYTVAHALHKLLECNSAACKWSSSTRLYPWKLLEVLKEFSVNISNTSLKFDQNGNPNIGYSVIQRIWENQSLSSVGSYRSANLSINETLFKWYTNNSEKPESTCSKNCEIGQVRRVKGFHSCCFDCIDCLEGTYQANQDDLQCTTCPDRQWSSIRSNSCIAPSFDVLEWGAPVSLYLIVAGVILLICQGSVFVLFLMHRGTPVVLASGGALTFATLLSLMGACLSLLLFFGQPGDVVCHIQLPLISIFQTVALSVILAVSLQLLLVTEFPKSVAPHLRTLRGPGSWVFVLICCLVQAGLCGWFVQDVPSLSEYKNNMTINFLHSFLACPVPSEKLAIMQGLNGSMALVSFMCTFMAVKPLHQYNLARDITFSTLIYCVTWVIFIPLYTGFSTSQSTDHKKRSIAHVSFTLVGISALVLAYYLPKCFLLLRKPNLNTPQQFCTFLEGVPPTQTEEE
Method: The Ca^2+-flux assay was performed using Flip-In 293 cell line (Life Technologies) stably expressing full-length T1r2a, T1r3, and Gα16-gust44 as described previously. The response stimulated by either 5 or 10 mM amino acid was represented asΔRFU (delta relative fluorescence unit) defined as the maximum fluorescence intensity induced by the addition of the amino acid, subtracted with that of an assay buffer in the absence of amino acid.

[2] = cited from earlier work; for Hydropathy Index: hydrophobicity/hydrophilicity, ref Kyte & Doolittle, J. Mol. Biol., 157, 105 (1982); for pI: ref Handbook of Chemistry and Physics, CRC Press; for logKd_CW (polarity): transfer from cyclohexane to an aqueous solution, ref Radzicka & Wolfenden, Biochemistry, 27, 1664 (1988); for Es'c (steric effects) / πα (hydrophobicity) / HP (hydration potential): α-substituent group; for Es'c (steric effects) / πα (hydrophobicity): ref Akamatsu et al., J. Pharm. Sci., 83, 1026 (1994); for HP (hydration potential): ref Wolfenden et al., Biochemistry, 20, 849 (1981)
[3] = 5 mM amino acid, n = 6 (n = 12 for L-glutamine)
[4] = estimated from ΔRFU at 10 mM by Hill equation, ΔRFUmax 104.3, read-out: EC50-est
[5] = from response at 10 mM, log 1/EC50-est, read-out: pEC50-est (converted)
[6] = from ΔTm at 0.1 mM via Eq 1, T0 326.1 K, ΔH0 72.1 kcal mol-1, read-out: Kd-app estimated at a single ligand concentration
[7] = from ΔTm at 1 mM via Eq 1, T0 326.1 K, ΔH0 72.1 kcal mol-1, read-out: Kd-app estimated at a single ligand concentration
[8] = from ΔTm at 10 mM via Eq 1, T0 326.1 K, ΔH0 72.1 kcal mol-1, read-out: Kd-app estimated at a single ligand concentration
[9] = log 1/Kd-app, converted from S1 Table values (10 mM; L-Ala 1 mM, L-Gln 0.1 mM)
[10] = from response at 10 mM, log 1/EC50-est

Row | ΔTm (medaka T1r2a/T1r3LBD; 0.1 mM amino acid) [K] | ΔTm (medaka T1r2a/T1r3LBD; 1 mM amino acid) [K] | ΔTm (medaka T1r2a/T1r3LBD; 10 mM amino acid) [K] | ΔRFU [1, 3] | ΔRFU ([1]; 10 mM amino acid, n = 6) | EC50 [1, 4] [mM] | potency estimated from few doses (medaka T1r2a/T1r3LBD; [6]) [mM] | potency estimated from few doses (medaka T1r2a/T1r3LBD; [7]) [mM] | potency estimated from few doses (medaka T1r2a/T1r3LBD; [8]) [mM] | pKd-app (medaka T1r2a/T1r3LBD; [9]) | pEC50-est [1, 10] | Compound | Hydropathy Index [2] | pI [2] | logKd_CW (polarity) [2] | Es'c (steric effects) [2] | πα (hydrophobicity) [2] | HP (hydration potential) [2] | also measured
1 | 0.12 ± 0.07 | 0.38 ± 0.06 | 4.36 ± 0.99 | 0.460 ± 2.58 | 15.7 ± 6.13 | 56.3 | 2.4 | 7.33 | 3 | 2.52 | 1.25 | NC(=O)C[C@H](N)C(=O)O [L-Asn] | -3.5 | 5.41 | 4.88 | -0.98 | -0.52 | -9.68 | 
2 | -0.06 ± 0.17 | -1.71 ± 0.19 | 0.74 ± 0.05 | -4.00 ± 1.10 | -9.43 ± 1.83 |  |  |  | 34.9 |  |  | N[C@@H](CC(=O)O)C(=O)O [L-Asp, L-aspartate] | -3.5 | 2.77 | 3.27 | -0.98 | 0.05 | -10.95 | effect on thermal stability / Tm shift of T1r2a/T1r3LBD (in words) (medaka T1r2a/T1r3LBD): destabilized the protein; Kd (medaka T1r2a/T1r3LBD; log 1/Kd-app, converted from S1 Table values (10 mM; L-Ala 1 mM, L-Gln 0.1 mM), read-out: pKd-app (converted)): 34.7 mM
3 | -3.75 ± 0.33 | 1.21 ± 0.02 | 5.81 ± 0.07 | 4.72 ± 2.39 | 14.4 ± 6.62 | 62.4 |  | 1.96 | 1.67 | 2.78 | 1.20 | N[C@@H](Cc1c[nH]cn1)C(=O)O [L-His] | -3.2 | 7.59 | 3.34 | -0.86 | 0.17 | -10.27 | 
4 | 0.08 ± 0.09 | -0.94 ± 0.07 | 6.91 ± 0.05 | 0.933 ± 1.91 | 27.8 ± 5.89 | 27.5 | 3.49 |  | 1.11 | 2.96 | 1.56 | CC(C)C[C@H](N)C(=O)O [L-Leu] |  |  | -3.62 | -1.44 | 1.52 | 2.28 | 
5 | 0.45 ± 0.11 | 6.17 ± 0.05 | 8.85 ± 0.06 | -2.52 ± 1.72 | 21.8 ± 7.73 | 37.9 | 0.604 | 0.146 | 0.562 | 3.25 | 1.42 | CSCC[C@H](N)C(=O)O [L-Met] | 1.9 | 5.74 | -1.73 | -1.03 | 0.99 | -1.48 | 
6 | 0.30 ± 0.04 | 1.04 ± 0.12 | 3.53 ± 0.05 | 2.08 ± 2.32 | 22.4 ± 5.78 | 36.5 | 0.918 | 2.37 | 4.37 | 2.36 | 1.44 | N[C@@H](Cc1ccccc1)C(=O)O [L-Phe] | 2.8 | 5.48 | -2.19 | -0.9 | 1.78 | -0.76 | 

The remaining lines, values behind:

Row | Compound | ΔTm (medaka T1r2a/T1r3LBD; 0.1 mM amino acid) [K] | ΔTm (medaka T1r2a/T1r3LBD; 1 mM amino acid) [K] | ΔTm (medaka T1r2a/T1r3LBD; 10 mM amino acid) [K] | ΔRFU [1, 3] | ΔRFU ([1]; 10 mM amino acid, n = 6) | EC50 [1, 4] [mM] | potency estimated from few doses (medaka T1r2a/T1r3LBD; [6]) [mM] | potency estimated from few doses (medaka T1r2a/T1r3LBD; [7]) [mM] | potency estimated from few doses (medaka T1r2a/T1r3LBD; [8]) [mM] | pKd-app (medaka T1r2a/T1r3LBD; [9]) | pEC50-est [1, 10] | Hydropathy Index [2] | pI [2] | logKd_CW (polarity) [2] | Es'c (steric effects) [2] | πα (hydrophobicity) [2] | HP (hydration potential) [2] | also measured
7 | C[C@@H](N)C(=O)O [D-Ala, D-alanine] | 0.15 ± 0.05 | -0.33 ± 0.07 | -1.03 ± 0.09 | 7.08 ± 2.16 | 23.6 ± 8.83 | 34.2 |  |  |  |  |  |  |  |  |  |  |  | effect on thermal stability / Tm shift of T1r2a/T1r3LBD (in words) (medaka T1r2a/T1r3LBD): thermal destabilization; Tm shift (in words) (medaka T1r2a/T1r3LBD; listed as D-alanine): did not induce a significant Tm shift; Tm shift (in words) (medaka T1r2a/T1r3LBD; listed as d-alanine): no substantial Tm shifts; potency estimated from few doses (medaka T1r2a/T1r3LBD; read-out: Kd-app estimated at a single ligand concentration, from ΔTm at 0.1 mM via Eq 1, T0 326.1 K, ΔH0 72.1 kcal mol-1): 1.95 mM; full-length receptor response (in words) ([1]; 5 or 10 mM, compared to enantiomer L-alanine): significantly weak responses; EC50 ([1]; estimated from ΔRFU at 5 mM by Hill equation, ΔRFUmax 104.3, read-out: EC50-est): 68.7 mM; EC50 ([1]; from response at 5 mM, log 1/EC50-est, read-out: pEC50-est (converted)): 69.2 mM; EC50 [1, 5]: 33.9 mM
8 | CC[C@H](C)[C@H](N)C(=O)O [L-Ile] | -0.50 ± 0.11 | -0.57 ± 0.07 | 2.89 ± 2.40 | 2.90 ± 2.82 | 30.5 ± 6.26 | 24.2 |  |  | 6.04 | 2.22 | 1.62 | 4.5 | 6.02 | -3.62 | -1.81 | 1.43 | 2.15 | 
9 | NCCCC[C@H](N)C(=O)O [L-Lys, L-lysine] | -0.04 ± 0.03 | -0.40 ± 0.17 | -3.83 ± 0.30 | 8.68 ± 4.29 | 18.5 ± 8.01 |  |  |  |  |  |  |  |  |  |  |  |  | effect on thermal stability / Tm shift of T1r2a/T1r3LBD (in words) (medaka T1r2a/T1r3LBD; listed as L-lysine): thermal destabilization; effect on thermal stability / Tm shift of T1r2a/T1r3LBD (in words) (medaka T1r2a/T1r3LBD; listed as lysine): destabilized the protein; EC50 ([1]; EC50-est, estimated from ΔRFU at 5 mM by Hill equation, ΔRFUmax 104.3): 55.1 mM; EC50 ([1]; EC50-est, estimated from ΔRFU at 10 mM by Hill equation, ΔRFUmax 104.3): 46.5 mM; EC50 ([1]; pEC50-est, from response at 5 mM, log 1/EC50-est): 55 mM; EC50 ([1]; pEC50-est, from response at 10 mM, log 1/EC50-est): 46.8 mM
10 | O=C(O)[C@@H]1CCCN1 [L-Pro, L-proline] | -0.15 ± 0.04 | 0.04 ± 0.07 | 7.24 ± 0.02 | 2.90 ± 1.93 | 45.1 ± 7.06 | 13.2 |  |  |  |  |  |  |  |  |  |  |  | potency estimated from few doses (medaka T1r2a/T1r3LBD; read-out: Kd-app estimated at a single ligand concentration, from ΔTm at 1 mM via Eq 1, T0 326.1 K, ΔH0 72.1 kcal mol-1): 79.9 mM; potency estimated from few doses (medaka T1r2a/T1r3LBD; read-out: Kd-app estimated at a single ligand concentration, from ΔTm at 10 mM via Eq 1, T0 326.1 K, ΔH0 72.1 kcal mol-1): 0.985 mM; EC50 [1, 5]: 13.2 mM
